Results on four compounds are retold here after ChEMBL document CHEMBL5608197, “Optimization of pyrazolopyridine 4-carboxamides with potent antimalarial activity for which resistance is associated with the P. falciparum transporter ABCI3” (Eur J Med Chem, 2024).

A short description of data set [1]: Intrinsic clearance in rat hepatocytes at 1 uM measured per million cells for 90 mins by LC-MS/MS analysis. Type of data set: ADME, cell-based, Hepatocyte. The following applies: read-out: CLH.
The subject of data set [2] is Plasmodium falciparum. Kind of data set: Antiplasmodial activity against asexual blood stage of Plasmodium falciparum 3D7 assessed as inhibition of parasite growth incubated for 72 hrs by LDH assay. The following applies: 3D7, 72 h. Format: functional, organism-based.
The nature of data set [3]: Cytotoxicity against human HepG2 cells assessed as inhibition of cell growth incubated for 48 hrs by CellTiter-Glo luminescence assay. Format: toxicity, cell-based.
Data set [4] is described as follows: Aqueous solubility of the compound in PBS buffer at pH 7.4 at 200 uM incubated for 2 hrs under shaking condition by miniaturized shake flask method. Format: physicochemical.
Data set [5] can be described thus: Lipophilicity, elogD of the compound in 1-Octanol/PBS at pH 7.4 at 7.5 uM incubated for 2 hrs by miniaturized shake flask method. Format: physicochemical.
Data set [6] in a line: Intrinsic clearance in human liver microsomes at 1 uM measured for 60 mins by LC-MS/MS analysis. The following applies: read-out: CLH. Type of data set: ADME, Microsome.
The test system of data set [7] is Plasmodium falciparum. Kind of data set: Antimalarial activity against asexual stage of Plasmodium falciparum 3D7 infected in erythrocytes assessed as lag phase of parasite growth at 10XEC50 incubated for 24 hrs followed by drug removal and incubation for 48 hrs with CFDA-SE labelled fresh erythrocytes by Hoechst 33342 staining based two-color flow cytometry. Format: functional, organism-based. The following applies: Erythrocyte.

The subject of data set [8] is Plasmodium falciparum. In words: Antimalarial activity against asexual stage of Plasmodium falciparum 3D7 infected in erythrocytes assessed as parasite killing at 10XEC50 incubated for 48 hrs with compound renewal for every 24 hrs followed by drug removal and incubation for 48 hrs with CFDA-SE labelled fresh erythrocytes by Hoechst 33342 staining based two-color flow cytometry. Format: functional, organism-based. The following applies: Erythrocyte.

Data set [9] deals with Plasmodium falciparum. Kind of data set: Antiplasmodial activity against ring stage of Plasmodium falciparum 3D7 expressing ABCI3-HAreg assessed as inhibition of parasite proliferation incubated for 72 hrs in absence of ABCI3 inhibitor, GlcN by SYBR dye based flow cytometry. Format: functional, organism-based. The following applies: 3D7, 72 h.
Data set [10] has as its system Plasmodium falciparum. In words: Antiplasmodial activity against ring stage of Plasmodium falciparum 3D7 expressing ABCI3-HAreg assessed as inhibition of parasite proliferation incubated for 72 hrs in presence of ABCI3 inhibitor, GlcN by SYBR dye based flow cytometry. The following applies: 3D7, 72 h. Format: functional, organism-based.
Data set [11] can be described thus: Ratio of EC50 for antiplasmodial activity against ring stage of Plasmodium falciparum 3D7 expressing ABCI3-HAreg in absence of ABCI3 inhibitor, GlcN to EC50 for antiplasmodial activity against ring stage of Plasmodium falciparum 3D7 expressing ABCI3-HAreg in presence of ABCI3 inhibitor, GlcN. Format: functional.
In data set [12] the test system is Plasmodium falciparum. In words: Antiplasmodial activity against Plasmodium falciparum Dd2 infected in erythrocytes assessed as inhibition of parasite growth incubated for 72 hrs by [3H]hypoxanthine incorporation based microbeta counting analysis. Format: functional, organism-based. The following applies: Dd2, Erythrocyte.
Data set [13] relates to Plasmodium falciparum. In words: Antiplasmodial activity against multidrug-resistant Plasmodium falciparum Dd2 harboring CARL-I1139K mutant infected in erythrocytes assessed as inhibition of parasite growth incubated for 72 hrs by [3H]hypoxanthine incorporation based microbeta counting analysis. The following applies: Dd2, Erythrocyte. Type of data set: functional, organism-based.

The subject of data set [14] is Plasmodium falciparum. In words: Antiplasmodial activity against multidrug-resistant Plasmodium falciparum Dd2 harboring DHODH-C276F mutant infected in erythrocytes assessed as inhibition of parasite growth incubated for 72 hrs by [3H]hypoxanthine incorporation based microbeta counting analysis. Format: functional, organism-based. The following applies: Dd2, Erythrocyte.

For data set [15], the system named is Plasmodium falciparum. Kind of data set: Antiplasmodial activity against multidrig-resistant Plasmodium falciparum Dd2 harboring eEF2Y-I86N mutant infected in erythrocytes assessed as inhibition of parasite growth incubated for 72 hrs by [3H]hypoxanthine incorporation based microbeta counting analysis. Type of data set: functional, organism-based. The following applies: Dd2, Erythrocyte.

Data set [16] has as its system Plasmodium falciparum. Kind of data set: Antiplasmodial activity against multidrug-resistant Plasmodium falciparum Dd2 harboring PI4K-S743F mutant infected in erythrocytes assessed as inhibition of parasite growth incubated for 72 hrs by [3H]hypoxanthine incorporation based microbeta counting analysis. Format: functional, organism-based. The following applies: Dd2, Erythrocyte.

The subject of data set [17] is Plasmodium falciparum. In words: Antiplasmodial activity against multidrug-resistant Plasmodium falciparum Dd2 harboring cyt b-I22L mutant infected in erythrocytes assessed as inhibition of parasite growth incubated for 72 hrs by [3H]hypoxanthine incorporation based microbeta counting analysis. Format: functional, organism-based. The following applies: Dd2, Erythrocyte.

For data set [18], the system named is Plasmodium falciparum. Kind of data set: Antiplasmodial activity against multidrug-resistant Plasmodium falciparum K1 infected in erythrocytes assessed as inhibition of parasite growth incubated for 72 hrs by [3H]hypoxanthine incorporation based microbeta counting analysis. Type of data set: functional, organism-based. The following applies: K1, Erythrocyte.

In data set [19] the test system is Plasmodium falciparum. In words: Antiplasmodial activity against multidrug-resistant Plasmodium falciparum NF54 infected in erythrocytes assessed as inhibition of parasite growth incubated for 72 hrs by [3H]hypoxanthine incorporation based microbeta counting analysis. The following applies: NF54, Erythrocyte. Format: functional, organism-based.
Data set [20] concerns Plasmodium falciparum. In words: Antiplasmodial activity against multidrug-resistant Plasmodium falciparum TM90-C2B infected in erythrocytes assessed as inhibition of parasite growth incubated for 72 hrs by [3H]hypoxanthine incorporation based microbeta counting analysis. Format: functional, organism-based. The following applies: Erythrocyte.
Data set [21] has as its system Plasmodium falciparum. In words: Antiplasmodial activity against multidrug-resistant Plasmodium falciparum 7G8 infected in erythrocytes assessed as inhibition of parasite growth incubated for 72 hrs by [3H]hypoxanthine incorporation based microbeta counting analysis. The following applies: 7G8, Erythrocyte. Type of data set: functional, organism-based.
For data set [22], the system named is Plasmodium falciparum. In words: Antiplasmodial activity against multidrug-resistant Plasmodium falciparum Cam3.1 infected in erythrocytes assessed as inhibition of parasite growth incubated for 72 hrs by [3H]hypoxanthine incorporation based microbeta counting analysis. Format: functional, organism-based. The following applies: Cam3.1, Erythrocyte.
The test system of data set [23] is Plasmodium berghei. Kind of data set: Antimalarial activity against asexual blood stage of Plasmodium berghei ANKA infected in Balb/c mouse assessed as reduction in parasitemia at 30 mg/kg, po qd administered at 2 hrs post-infection on day 0 and then on days 1,2 and 3 post-infection and measured on day 2 to 4 post-infection. The following applies: time 3-5 day. Format: functional, organism-based.

In data set [24] the test system is Plasmodium berghei. Kind of data set: Antimalarial activity against asexual blood stage of Plasmodium berghei ANKA infected in Balb/c mouse assessed as reduction in parasitemia at 30 mg/kg, po qd administered at 2 hrs post-infection on day 0 and then on days 1,2 and 3 post-infection and measured on day 4 to 7 post-infection by peter's test. Type of data set: functional, organism-based. The following applies: time 5-8 day.

Data set [25] deals with Plasmodium berghei. Kind of data set: Antimalarial activity against asexual blood stage of Plasmodium berghei ANKA infected in Balb/c mouse assessed as reduction in parasitemia at 25 mg/kg, po qd administered at 2 hrs post-infection on day 0 and then on days 1,2 and 3 post-infection and measured on day 2 to 4 post-infection. The following applies: time 3-5 day. Format: functional, organism-based.

Data set [26] has as its system Plasmodium berghei. Kind of data set: Antimalarial activity against asexual blood stage of Plasmodium berghei ANKA infected in Balb/c mouse assessed as reduction in parasitemia at 25 mg/kg, po qd administered at 2 hrs post-infection on day 0 and then on days 1,2 and 3 post-infection and measured on day 5 to 7 post-infection by peter's test relative to control. Format: functional. The following applies: time 6-8 day.

Data set [27] in a line: Toxicity in Balb/c mouse infected with asexual blood stage of Plasmodium berghei ANKA assessed as body weight at 25 mg/kg, po qd administered at 2 hrs post-infection on day 0 and then on days 1,2 and 3. Format: organism-based. The following applies: in vivo, 96 h, time 4 day.
Data set [28] is described as follows: Toxicity in Balb/c mouse infected with asexual blood stage of Plasmodium berghei ANKA assessed as adverse effects at 25 mg/kg, po administered at 2 hrs post-infection on day 0 and then on days 1,2 and 3. The following applies: in vivo, 96 h, time 4 day. Type of data set: organism-based.
Data set [29] is described as follows: Intrinsic clearance in mouse liver microsomes at 1 uM measured for 60 mins by LC-MS/MS analysis. Format: ADME, Microsome. The following applies: read-out: CLH.

Converted amounts (≈) assume the structure as drawn. The source made the active and inactive calls. No cut-off for these calls is given here.

`Cc1nn(C(C)(C)C)c2nc(C3CC3)cc(C(=O)N3CCOc4ccccc43)c12`: the hepatocyte CLint at 1 µM in data set [1] was found to be 49 µL/min/1e6 cells. Further, the EC50 in the data set with Plasmodium falciparum [2] amounted to 130 nM; in the data set on Plasmodium falciparum [9], 47.6 nM; with Plasmodium falciparum [10], 13.9 nM; in the data set with Plasmodium falciparum [12], 88 nM; with Plasmodium falciparum [13], 79 nM; in the data set with Plasmodium falciparum [14], 105 nM. Further, the EC50 was determined as 104 nM with Plasmodium falciparum [15]; 101 nM with Plasmodium falciparum [16]; 91 nM in the data set on Plasmodium falciparum [17]; 134 nM in the data set with Plasmodium falciparum [18]; 46 nM in the data set with Plasmodium falciparum [19]; 119 nM with Plasmodium falciparum [20]. The results for the concentration giving a half-maximal response (EC50) with Plasmodium falciparum [21] and in the data set on Plasmodium falciparum [22] were 114 nM and 89 nM, respectively. Further, the CC50 at 48 h in [3] was above 40000 nM. Also, the solubility (thermodynamic) at 2 h, 200 µM in data set [4] was below 2.5 µM. This compound had a pH-dependent lipophilicity (logD) at 2 h, 7.5 µM in [5] of 5.4. The microsomal CLint at 1 µM in data set [6] worked out at 206 µL/min/mg. The outcome in the data set on Plasmodium falciparum [7] and in the data set with Plasmodium falciparum [8] was Active. Also, in data set [11], the “Ratio EC50” value came to 3.4.

`C[C@H]1[C@H](OC(=O)CCC(=O)O)O[C@@H]2O[C@@]3(C)CC[C@H]4[C@H](C)CC[C@@H]1[C@@]24OO3`: the outcome with Plasmodium berghei [23] was Active. Also, the result in the data set with Plasmodium berghei [24] was inactive.

For `Cc1nn(C(C)C)c2nc(C3CC3)cc(C(=O)N3CCOc4ccncc43)c12`, the hepatocyte CLint at 1 µM in [1] was 30 µL/min/1e6 cells. The concentration giving a half-maximal response (EC50) in the data set on Plasmodium falciparum [2] was determined as 19 nM. In addition, the CC50 at 48 h in [3] was 17600 nM. This compound also had a solubility (thermodynamic) at 2 h, 200 µM in data set [4] of 199 µM (≈ 75.1 µg/mL). Also, the log distribution coefficient (logD) at 2 h, 7.5 µM in [5] came out at 4.5. The microsomal CLint at 1 µM in [6] was 27 µL/min/mg; in data set [29], 323 µL/min/mg. Also, the outcome in the data set with Plasmodium berghei [25] was inactive. In addition, the inhibition in vivo at 25 mg/kg with Plasmodium berghei [26] is around 50%. The Activity result in data set [27] and in data set [28] was “Non-Toxic” in each case.

Consider `COc1cc2[nH]c(C)c(-c3ccc(Oc4ccc(OC(F)(F)F)cc4)cc3)c(=O)c2cc1Cl`, for which the results for the concentration giving a half-maximal response (EC50) in the data set on Plasmodium falciparum [12] and in the data set with Plasmodium falciparum [17] were 14 nM and 120 nM, respectively.
